Measured values taken from PMC8538301, “Structurally Diverse Polycyclic Salicylaldehyde Derivative Enantiomers from a Marine-Derived Fungus Eurotium sp. SCSIO F452” (Marine Drugs, 2021).

Assays:
[1] = Antioxidative assay (DPPH radical scavenging); details: 12 h, 517 nm
Method: Sample stock solutions (10 mM) were diluted to final concentrations of 2, 4, 8, 16, 32, 64, and 128 μM in ethanol. Then, 100 μL 0.2 mmol/L DPPH ethanol solution was added to 100 μL sample solutions of different concentrations on 96-well plates, and allowed to react at room temperature. […] After 12 h, the absorbance values were measured at 517 nm and converted into the percentage antioxidant activity (AA) using the following formula: AA(%) = [1 − (Asample − Ablank)/Acontrol] × 100%. All data were obtained in triplicate and are presented as means ± S.D. EC50 values were calculated with the SigmaPlot 10.0 software (Systat Software Inc., CA, USA) using a non-linear curve-fitting method.

[2] = tested on: SF-268 (human glioblastoma carcinoma); assay: Cytotoxicity assay (SRB); assay type: cell-based; details: SF-268 cells, mean ± SD
Method: (§1) The cells of SF-268 (human glioblastoma carcinoma), MCF-7 (breast cancer), HepG-2 (liver cancer), and A549 (lung cancer) were purchased from Stem Cell Bank, Chinese Academy of Sciences. The cells were cultured in DMEM medium (Gibco) containing 10% fetal bovine serum (Gibco) at 37 °C in a humidified atmosphere with 5% (v/v) CO2. The cells were incubated in cultural flasks until sub-confluent (~80%). Then, cells (180 μL) with a density of 3 × 10^4 cells/mL of media were seeded onto 96-well plates and incubated for 24 h at 37 °C, 5% CO2. Subsequently, 20 μL of different concentrations of compounds ranging from 1 to 128 μM in DMSO were added to each plate well. Equal volume of DMSO was used as a negative control. The plates were further incubated for 72 h. After incubation, cell monolayers were fixed with 50% (wt/v) trichloroacetic acid (50 μL) and stained for 30 min with 0.4% (wt/v) SRB dissolved in 1% acetic acid. Unbound dye was removed by washing repeatedly with 1% acetic acid. The protein-bound dye was dissolved in 10 mM Tris base solution (200 µL) for OD determination at 570 nm using a microplate reader. […] All data were obtained in triplicate and presented as means ± SD. IC50 values were calculated with the Sigma Plot 10.0 software (Systat Software Inc., CA, USA) using a non-linear curve-fitting method.

α-glucosidase = assay: α-Glucosidase inhibitory activity assay (PNPG substrate); assay type: biochemical; details: pH 6.8, 37 °C
Method: Inhibitory α-glucosidase activities were determined spectrophotometrically in a 96-well microtiter plate based on p-nitrophenyl-α-D-glucopyranoside (PNPG) as a substrate. In brief, 20 μL 0.2 U/mL α-glucosidase enzyme solution, 50 μL 0.1 mol/L PBS (pH 6.8), and 10 μL of the test compounds in DMSO were mixed and preincubated at 37 °C prior to initiation of the reaction by adding the substrate. After 10 min of preincubation, 20 μL 5 mmol/L PNPG solution was added and then incubated together at 37 °C. After 15 min of incubation, 20 μL 0.2 mol/L Na2CO3 was added to the test tubes to stop the reaction. The absorbance values were measured at 405 nm and converted into percentage inhibitory activity using the following formula: AA(%) = [1 − Asample/(Anegative control − Ablank)] × 100%. […] All data were obtained in triplicate and presented as means ± SD. IC50 values were calculated with the Sigma Plot 10.0 software using a non-linear curve-fitting method.

HepG2 (liver cancer) = assay: Cytotoxicity assay (SRB); assay type: cell-based, human; details: HepG2 cells, mean ± SD
Method: as §1

MCF-7 (breast cancer) = assay: Cytotoxicity assay (SRB); assay type: cell-based, human; details: MCF-7 cells, mean ± SD
Method: as §1

A549 (lung cancer) = assay: Cytotoxicity assay (SRB); assay type: cell-based, human; details: A549 cells, mean ± SD
Method: as §1

| Structure (SMILES) | EC50 [1] | IC50 ([2]; Homo sapiens, SF-268, 72 h) | IC50 (α-glucosidase) | IC50 (HepG2 (liver cancer); Homo sapiens, HepG2, 72 h) | IC50 (MCF-7 (breast cancer); Homo sapiens, MCF7, 72 h) | IC50 (A549 (lung cancer); Homo sapiens, A549, 72 h) | IC50 ([2]; 72 h) | IC50 (HepG2 (liver cancer); 72 h) | IC50 (MCF-7 (breast cancer); 72 h) | IC50 (A549 (lung cancer); 72 h) |
| --- | --- | --- | --- | --- | --- | --- | --- | --- | --- | --- |
| CCCCCC1(O)Cc2c3c(cc(O)c2C1=O)C=CC(C)(C)O3 (racemic) [(±)-3, Euroticin H] | > 100 µM | > 100 µM | 16.3 ± 1.68 µM | > 100 µM | > 100 µM | > 100 µM | – | – | – | – |
| CC(C)=CCc1cc2c(c(C=O)c1O)[C@@H]1[C@H](CC[C@@H]1O)[C@@H](C)O2 [(+)-5, eurotirumin] | > 100 µM | 22 ± 0.88 µM | 89.4 ± 7.86 µM | 41.2 ± 2.63 µM | 55.6 ± 4.85 µM | 47.3 ± 0.71 µM | – | – | – | – |
| CCCCC[C@@H]1O[C@@]2(C)Cc3c4c(cc(O)c3[C@@H]1O2)C=CC(C)(C)O4 [(−)-1, Euroticin F] | 41.4 ± 2.68 µM | 37.3 ± 2.46 µM | > 100 µM | 30.7 ± 3.55 µM | 28 ± 1.57 µM | 33.4 ± 1.5 µM | – | – | – | – |
| CCCCCCCC1(O)CC(C=CC(C)(C)O)=CC1=O (single isomer, unassigned; (-)) [(−)-4, Euroticin I] | > 100 µM | 23.7 ± 3.88 µM | > 100 µM | 19.5 ± 2.7 µM | 23.6 ± 2.99 µM | 22.2 ± 1.54 µM | – | – | – | – |
| O=C1O[C@H]([C@@H](O)CO)C(O)=C1O [Ascorbic acid, reference compound] | 11.3 ± 0.56 µM | – | – | – | – | – | – | – | – | – |
| CC(C)=CCc1cc2c(c(C=O)c1O)C1C(O)CCC1C(C)O2 (single isomer, unassigned; (-)) [(−)-5, eurotirumin] | > 100 µM | 35.6 ± 1.79 µM | > 100 µM | 40.7 ± 2.76 µM | 50.7 ± 2.48 µM | 42.6 ± 1.43 µM | – | – | – | – |
| CCCCCCCC1(O)CC(C=CC(C)(C)O)=CC1=O (single isomer, unassigned; (+)) [(+)-4, Euroticin I] | > 100 µM | – | > 100 µM | – | – | – | 12.7 ± 0.46 µM | 19.9 ± 5.09 µM | 20.5 ± 1.54 µM | 16.9 ± 0.92 µM |
| COc1cccc2c1C(=O)c1c(O)c3c(c(O)c1C2=O)C[C@@](O)(C(=O)CO)C[C@@H]3O[C@H]1C[C@H](N)[C@H](O)[C@H](C)O1 [Adriamycin, reference compound] | – | 1.19 ± 0.03 µM | – | 1.99 ± 0.07 µM | 2.02 ± 0.04 µM | 1.73 ± 0.04 µM | – | – | – | – |
| CCCCC[C@H]1O[C@]2(C)Cc3c4c(cc(O)c3[C@H]1O2)C=CC(C)(C)O4 [(+)-1, Euroticin F] | 42.3 ± 3.85 µM | 21.9 ± 0.96 µM | > 100 µM | 28 ± 1.68 µM | 27.2 ± 2.03 µM | 33.8 ± 0.34 µM | – | – | – | – |
| CO[C@H]1O[C@@H]2CC[C@@H]([C@H](C)O)[C@@H]2c2c(O)cc(CC=C(C)C)c(O)c21 [(+)-2, Euroticin G] | 76.9 ± 0.99 µM | > 100 µM | 38 ± 2.73 µM | > 100 µM | > 100 µM | > 100 µM | – | – | – | – |
| CO[C@@H]1O[C@H]2CC[C@H]([C@@H](C)O)[C@H]2c2c(O)cc(CC=C(C)C)c(O)c21 [(−)-2, Euroticin G] | 77.1 ± 1.88 µM | > 100 µM | 79.7 ± 1.74 µM | > 100 µM | > 100 µM | > 100 µM | – | – | – | – |
